These results are taken from US20230054093A1, “TREATMENT” (priority 2019, published 2023).

The target of test [1] is T1, Streptococcus pneumoniae NanA sialidase CBM (SpCBM, SEQ ID NO: 4) variant Im23 Y292E (Streptococcus pneumoniae, UniProt P62575, Y292E).
T1 construct: SpCBM, residues 121-305 of S. pneumoniae NanA sialidase; 6His (pHISTEV) (cleaved yes); made in house; host or cells: E. coli
The test is described as follows: Surface plasmon resonance (SPR, Biacore) binding affinity to sialyllactose. Set-up: key to Biacore (binding affinity to sialyllactose): Green: green indicates that the variant closely resembles its WT counterpart for that particular characteristic; Green’: pale green (green’) or yellow indicate increasing degrees of differences; Yellow: pale green (green’) or yellow indicate increasing degrees of differences; Orange: Red or orange indicate significant differences; Red or orange indicate significant differences. From the text: (§1) The 13 soluble proteins were expressed in E. coli and purified by immobilized metal affinity chromatography (IMAC), followed by TEV digestion to remove the 6His-tag, then reverse IMAC and size exclusion chromatography (SEC).
(§2) Ten purified domains (WTSp, Im19, Im20, Im21, Im22, Im23, WTTD, Im24, Im26 and Im27) were further characterized by:
(§3) (iv) Surface plasmon resonance (SPR) to measure binding affinity to sialyllactose
For orientation: Surface plasmon resonance follows binding to a sensor surface in real time, without labels.

The target in test [2] is T2, Streptococcus pneumoniae NanA sialidase CBM (SpCBM, SEQ ID NO: 4) variant Im20 V239T (Streptococcus pneumoniae, UniProt P62575, V239T).
T2 construct: SpCBM, residues 121-305 of S. pneumoniae NanA sialidase; 6His (pHISTEV) (cleaved yes); made in house; host or cells: E. coli
The description is as above. Set-up: key: Green: green indicates that the variant closely resembles its WT counterpart for that particular characteristic; Green’: pale green (green’) or yellow indicate increasing degrees of differences; Yellow: pale green (green’) or yellow indicate increasing degrees of differences; Orange: Red or orange indicate significant differences; Red or orange indicate significant differences. The conditions noted are these: qualitative colour code vs WT.
From the text: as §1, §2, §3

Test [3] addresses T3, Streptococcus pneumoniae NanA sialidase CBM (SpCBM, residues 121-305), wild type WTSp, SEQ ID NO: 4 (Streptococcus pneumoniae, UniProt P62575).
T3 construct: SpCBM, residues 121-305 of S. pneumoniae NanA sialidase; 6His (pHISTEV) (cleaved yes); made in house; host or cells: E. coli
The description is as above. Set-up: key: Green: green indicates that the variant closely resembles its WT counterpart for that particular characteristic; Green’: pale green (green’) or yellow indicate increasing degrees of differences; Yellow: pale green (green’) or yellow indicate increasing degrees of differences; Orange: Red or orange indicate significant differences; Red or orange indicate significant differences. The conditions noted are these: qualitative colour code vs WT.
From the text: as §1, §2, §3

Test [4] deals with T4, Streptococcus pneumoniae NanA sialidase CBM (SpCBM, SEQ ID NO: 4) variant Im19 V239A (Streptococcus pneumoniae, UniProt P62575, V239A).
T4 construct: SpCBM, residues 121-305 of S. pneumoniae NanA sialidase; 6His (pHISTEV) (cleaved yes); made in house; host or cells: E. coli
The description is as above. Also on record: key: Green: green indicates that the variant closely resembles its WT counterpart for that particular characteristic; Green’: pale green (green’) or yellow indicate increasing degrees of differences; Yellow: pale green (green’) or yellow indicate increasing degrees of differences; Orange: Red or orange indicate significant differences; Red or orange indicate significant differences. The conditions noted are these: qualitative colour code vs WT.
From the text: as §1, §2, §3

For test [5], the target named is T5, Streptococcus pneumoniae NanA sialidase CBM (SpCBM, SEQ ID NO: 4) variant Im21 V246G (Streptococcus pneumoniae, UniProt P62575, V246G).
T5 construct: SpCBM, residues 121-305 of S. pneumoniae NanA sialidase; 6His (pHISTEV) (cleaved yes); made in house; host or cells: E. coli
The description is as above. Set-up: key: Green: green indicates that the variant closely resembles its WT counterpart for that particular characteristic; Green’: pale green (green’) or yellow indicate increasing degrees of differences; Yellow: pale green (green’) or yellow indicate increasing degrees of differences; Orange: Red or orange indicate significant differences; Red or orange indicate significant differences. The conditions noted are these: qualitative colour code vs WT.
From the text: as §1, §2, §3

For test [6], the target named is T6, Streptococcus pneumoniae NanA sialidase CBM (SpCBM, SEQ ID NO: 4) variant Im22 I286A (Streptococcus pneumoniae, UniProt P62575, I286A).
T6 construct: SpCBM, residues 121-305 of S. pneumoniae NanA sialidase; 6His (pHISTEV) (cleaved yes); made in house; host or cells: E. coli
Described as above. Also on record: key: Green: green indicates that the variant closely resembles its WT counterpart for that particular characteristic; Green’: pale green (green’) or yellow indicate increasing degrees of differences; Yellow: pale green (green’) or yellow indicate increasing degrees of differences; Orange: Red or orange indicate significant differences; Red or orange indicate significant differences. The conditions noted are these: qualitative colour code vs WT.
From the text: as §1, §2, §3

Test [7] has as its target T7, Sp2CBMTD (SpOrig, SEQ ID NO: 7) variant HEX6 V239A/V246G/S342D/R403K, SEQ ID NO: 8 (Streptococcus pneumoniae, UniProt P62575, V239A/V246G).
T7 construct: trimerises; pHISTEV 6His, E. coli
The test is described as follows: Biacore characterization of hexameric Sp2CBMTD variants. Format: binding, Streptococcus pneumoniae (CBM); Pseudomonas aeruginosa (TD). Set-up: key: Green: green indicates that the variant closely resembles its WT counterpart for that particular characteristic; Green’: pale green (green’) or yellow indicate increasing degrees of differences; Yellow: pale green (green’) or yellow indicate increasing degrees of differences; Orange: Red or orange indicate significant differences; Red or orange indicate significant differences. The conditions noted are these: qualitative colour code vs WT hexamer.
From the text: as §3

For test [8], the target named is T8, Sp2CBMTD (SpOrig, SEQ ID NO: 7) variant HEX17 A162P/V239A/V246G/S342D/R403K, SEQ ID NO: 9 (Streptococcus pneumoniae, UniProt P62575, A162P/V239A/V246G).
T8 construct: PDB 2w38); trimerises; pHISTEV 6His, E. coli
The description is as above. The conditions noted are these: qualitative colour code vs WT hexamer. Also on record: key: Green: green indicates that the variant closely resembles its WT counterpart for that particular characteristic; Green’: pale green (green’) or yellow indicate increasing degrees of differences; Yellow: pale green (green’) or yellow indicate increasing degrees of differences; Orange: Red or orange indicate significant differences; Red or orange indicate significant differences. The class given is binding, Streptococcus pneumoniae (CBM); Pseudomonas aeruginosa (TD).
From the text: as §3

Consider `CC(=O)N[C@H]1[C@H]([C@H](O)[C@H](O)CO)O[C@@](O[C@H]2[C@@H](O)[C@@H](CO)O[C@@H](O[C@H]3[C@H](O)[C@@H](O)C(O)O[C@@H]3CO)[C@@H]2O)(C(=O)O)C[C@@H]1O` (stereo partly drawn) [sialyllactose], for which the ligand affinity entry in test [1] (in words, compared with WT) is recorded as “reduced ligand affinity”. The “Biacore (binding affinity to sialyllactose)” value in test [1] (qualitative colour code vs WT) was “Yellow”; in test [2] it was “Green”; in test [3], “Green”; in test [4] it was “Green”; in test [5], “Green”; in test [6] it was “Green”. The Biacore result in test [7] and in test [8] was “Green” throughout.
